Reference: ChEMBL document CHEMBL3797180, “Squaramides with cytotoxic activity against human gastric carcinoma cells HGC-27: synthesis and mechanism of action” (Medchemcomm, 2016)
Activity calls are given as the source filed them. The rule behind the calls is not given here.

Legend:
HEK293 = test: Cytotoxicity against HEK293 cells by MTT assay; format: cell-based; settings: Homo sapiens
HGC-27 [1] = test: Induction of apoptosis in HGC27 cells assessed as increase in necrotic cells at 2 uM co-treated with autophagy inhibitor chloroquine after 24 hrs by Annexin-V-FITC/propidium iodide staining-based flow cytometry; format: functional, cell-based; settings: Homo sapiens
[2] = Cytotoxicity against HGC27 cells assessed as cellular ATP level after 24 hrs by SRB assay; format: functional, cell-based; settings: Homo sapiens, HGC-27, 24 h
HGC-27 [3] = test: Induction of apoptosis in HGC27 cells assessed as increase in necrotic cells at 2 uM co-treated with autophagy inhibitor 3-MA after 24 hrs by Annexin-V-FITC/propidium iodide staining-based flow cytometry; format: functional, cell-based; settings: Homo sapiens
HGC-27 [4] = test: Induction of autophagy in HGC27 cells assessed as increase in LC3-2 level after 24 hrs by Western blotting method in presence of lysosomal dysfunction inducer PI; format: functional, cell-based; settings: Homo sapiens
HGC-27 [5] = test: Induction of apoptosis in HGC27 cells assessed as apoptotic cells at 2.5 uM after 24 hrs by Annexin-V-FITC/propidium iodide staining-based flow cytometry (reference value: 6.7%); format: functional, Homo sapiens
HGC-27 [6] = test: Induction of apoptosis in HGC27 cells at 8 uM after 24 hrs in presence of pan-caspase inhibitor Z-VAD-FMK by Annexin-V-FITC/propidium iodide staining-based flow cytometry; format: functional, cell-based; settings: Homo sapiens
HeLa [7] = test: Cytotoxicity against human HeLa cells assessed as inhibition of cell viability at 20 uM after 24 hrs by MTT assay; format: functional, cell-based
[8] = Cytotoxicity against human T98 cells by MTT assay; format: functional, cell-based
[9] = Cytotoxicity against human U87 cells by MTT assay; format: functional, cell-based, U-87MG ATCC; settings: U-87 MG
MDCK [10] = test: Cytotoxicity against MDCK cells assessed as cellular ATP level after 24 hrs by SRB assay; format: cell-based; settings: Canis lupus familiaris
Vero [11] = test: Cytotoxicity against African green monkey Vero cells by MTT assay; format: cell-based; settings: Chlorocebus sabaeus
HeLa [12] = test: Cytotoxicity against human HeLa cells assessed as inhibition of cell viability at 100 uM after 24 hrs by MTT assay; format: functional, cell-based
Vero [13] = test: Cytotoxicity against African green monkey Vero cells assessed as cellular ATP level after 24 hrs by SRB assay; format: cell-based; settings: Chlorocebus sabaeus
[14] = Cell cycle arrest in HGC27 cells assessed as accumulation at G0/G1 phase after 24 hrs at 5 uM by propidium idoide staining based flow cytometric analysis; format: functional; settings: Homo sapiens, HGC-27
HGC-27 [15] = test: Induction of reactive oxygen species formation in HGC27 cells at 1.4 to 24 uM after 5 hrs using DCFH-DA probe by spectrofluorimetry; format: functional, cell-based; settings: Homo sapiens
HGC-27 [16] = test: Induction of apoptosis in HGC27 cells assessed as apoptotic cells after 24 hrs by Annexin-V-FITC/propidium iodide staining-based flow cytometry; format: functional, cell-based; settings: Homo sapiens
HGC-27 [17] = test: Induction of apoptosis in HGC27 cells at 8 uM after 24 hrs in presence of caspase 9 inhibitor Z-LEHD-FMK by Annexin-V-FITC/propidium iodide staining-based flow cytometry; format: functional, cell-based; settings: Homo sapiens
[18] = (§1) Cytotoxicity against HGC27 cells after 24 hrs by MTT assay; format: functional, cell-based; settings: Homo sapiens, HGC-27, 24 h
HGC-27 [19] = test: as §1; format: functional, cell-based; settings: Homo sapiens
MDCK [20] = test: Cytotoxicity against MDCK cells by MTT assay; format: cell-based; settings: Canis lupus familiaris
HGC-27 [21] = test: Induction of apoptosis in HGC27 cells at 8 uM after 24 hrs in presence of cathepsin-B inhibitor-3 by Annexin-V-FITC/propidium iodide staining-based flow cytometry; format: functional, cell-based; settings: Homo sapiens
HGC-27 [22] = test: Induction of apoptosis in HGC27 cells assessed as apoptotic cells at 1 uM after 24 hrs by Annexin-V-FITC/propidium iodide staining-based flow cytometry (reference value: 6.7%); format: functional, Homo sapiens
[23] = Cell cycle arrest in HGC27 cells assessed as decrease in G2/M phase population after 24 hrs at 5 uM by propidium idoide staining based flow cytometric analysis; format: functional; settings: Homo sapiens, HGC-27
[24] = Cytotoxicity against HGC27 cells after 48 hrs by MTT assay; format: functional, cell-based; settings: Homo sapiens, HGC-27, 48 h
HGC-27 [25] = test: Induction of apoptosis in HGC27 cells assessed as necrotic cells at 8 uM after 24 hrs in presence of RIP1 inhibitor necrostatin-1 by Annexin-V-FITC/propidium iodide staining-based flow cytometry; format: functional, cell-based; settings: Homo sapiens
[26] = Cell cycle arrest in HGC27 cells assessed as accumulation at G2/GM phase after 24 hrs at 500 nM by propidium idoide staining based flow cytometric analysis; format: functional; settings: Homo sapiens, HGC-27
HGC-27 [27] = test: Induction of apoptosis in HGC27 cells assessed as apoptotic cells at 8 uM after 24 hrs by Annexin-V-FITC/propidium iodide staining-based flow cytometry (reference value: 6.7%); format: functional, Homo sapiens
HGC-27 [28] = test: Induction of apoptosis in HGC27 cells at 2 uM co-treated with autophagy inhibitor 3-MA after 24 hrs by Annexin-V-FITC/propidium iodide staining-based flow cytometry; format: functional, cell-based; settings: Homo sapiens
HGC-27 [29] = test: Induction of autophagy in HGC27 cells assessed as increase in LC3-2 level after 24 hrs by Western blotting method; format: functional, cell-based; settings: Homo sapiens
HGC-27 [30] = test: Induction of apoptosis in HGC27 cells at 8 uM after 24 hrs in presence of caspase 8 inhibitor Z-IETD-FMK by Annexin-V-FITC/propidium iodide staining-based flow cytometry; format: functional, cell-based; settings: Homo sapiens
HGC-27 [31] = test: Induction of apoptosis in HGC27 cells assessed as reduction in mitochondrial membrane potential at 2 and 8 uM after 24 hrs by JC-1 staining based flow cytometric analysis; format: functional, cell-based; settings: Homo sapiens
HeLa [32] = test: Cytotoxicity against human HeLa cells after 24 hrs by MTT assay; format: functional, cell-based
HGC-27 [33] = test: Induction of apoptosis in HGC27 cells at 2 uM co-treated with autophagy inhibitor chloroquine after 24 hrs by Annexin-V-FITC/propidium iodide staining-based flow cytometry; format: functional, cell-based; settings: Homo sapiens
HGC-27 [34] = test: Induction of apoptosis in HGC27 cells assessed as necrotic cells at 8 uM after 24 hrs in presence of cathepsin-B inhibitor-3 by Annexin-V-FITC/propidium iodide staining-based flow cytometry; format: functional, cell-based; settings: Homo sapiens
[35] = Cell cycle arrest in HGC27 cells assessed as decrease in S-phase population after 24 hrs at 5 uM by propidium idoide staining based flow cytometric analysis; format: functional; settings: Homo sapiens, HGC-27

**Q.** Which results are given for `O=c1c(Nc2cc(C(F)(F)F)cc(C(F)(F)F)c2)c(N[C@@H](c2ccccc2)C(O)(c2ccccc2)c2ccccc2)c1=O`?
**A.** IC50 (HEK293): 9.03 µM; Activity (HGC-27 [1]): Active; IC50 [2]: 9.74 µM; Activity (HGC-27 [3]): Active; Activity (HGC-27 [4]): Active; Activity (HGC-27 [5]): 24.7%; Activity (HGC-27 [6]): Active; inhibition (HeLa [7]): Active; IC50 [8]: 7.15 µM; IC50 [9]: 60.2 µM; IC50 (MDCK [10]): 149 µM; IC50 (Vero [11]): 33.4 µM; inhibition (HeLa [12]): Active; IC50 (Vero [13]): 73.9 µM; Activity [14]: Active; Activity (HGC-27 [15]): inactive; Activity (HGC-27 [16]): Dose-dependent effect; Activity (HGC-27 [17]): inactive; IC50 [18]: 1810 nM; Activity (HGC-27 [19]): Dose-dependent effect; IC50 (MDCK [20]): 70.2 µM; Activity (HGC-27 [21]): Active; Activity (HGC-27 [22]): 2.4%; Activity [23]: Active; IC50 [24]: 660 nM; Activity (HGC-27 [25]): Active; Activity [26]: Active; Activity (HGC-27 [27]): 60.1%; Activity (HGC-27 [28]): Active; Activity (HGC-27 [29]): Active; Activity (HGC-27 [30]): Active; Activity (HGC-27 [31]): Active; IC50 (HeLa [32]): 34.6 µM; Activity (HGC-27 [33]): Active; Activity (HGC-27 [34]): Active; Activity [35]: Active
